Source: patent US4997850A, “Treating agent for osteroarthritis” (Kureha Kagaku Kogyo Kabushiki Kaisha, priority 1989, dated 1991)
Structures can show the parent of a compound that is named as a salt.

How the values were obtained:
[1] = Acute toxicity (LD50) of further compounds, determined in the same manner as ACP; format: in vivo; conditions: same manner as ACP (oral or subcutaneous, mice and rats)
Experimental: For oral administration, a suspension of ACP dispersed in an aqueous solution of 0.5% methylcellulose and 0.4% Tween 80 (nonionic surfactant, manufactured by TOKYO KASEI, Co., Ltd.) was prepared and administered to the animals via a stomach sonde. For subcutaneous administration, a suspension of ACP dispersed in an aqueous physiological saline solution containing 0.5% of carboxymethyl cellulose sodium (hereinafter referred to as "CMC") was prepared and injected to the animals with a syringe.
Further, the acute toxicities (LD50) of […]

[2] = system: proteoglycan (PG) release under IL-1α; assay: Proteoglycan (PG) release from prelabelled cultured cartilage matrix with addition of IL-1α; format: cell-based; conditions: for inhibiting activity on PG release (further compounds): concentration not given; for inhibition of PG release under IL-1α: 20 units of IL-1α, 10 μM
Experimental: Further, to a cultured cartilage matrix, in which PG is prelabelled in advance with 1 μCi of Na2^35 SO4, 20 units of IL-1α was added to each group including control group and 10 μM of PAL, 100 μM of PAL or 10 μM of ACP was added to each test group and studied the effect of each compound to the PG release from the cells.

[3] = system: IL-1 release from human monocyte; assay: Inhibition of IL-1 (IL-1α and IL-1β) release from human monocyte; format: cell-based; conditions: 3.3 μM; LPS 10 μg/ml, 42 hours
Experimental: Monocyte were isolated from human venous blood by density-gradient centrifugation using a Ficoll-paque solution and obtained the cells having a purity of not less than 95% by purifying with a monocyte-separating plate. After dispersing the cells in a medium, RPMI 1640, containing 10% of FBS, the monocyte were inoculated in a culture dish in a ratio of 10^6 cells/3 ml/well and cultured under an atmosphere containing 5% CO2 at 37° C. for 30 minutes. Then, each 15 μl of DMSO solution of one of ACP, PAL and PAC was added to each well (a final DMSO concentration of 0.5%) and 30 minutes later a lipopolysaccharide (hereinafter referred to as "LPS"), a substance to stimulate IL-1 production, was added at a final LPS concentration of 10 μg/ml and they were cultured for 42 hours. Then, the reacted culture medium was recovered and accompanied cells with the medium were separated by centrifugation and obtained the supernatant free of cell. IL-1α and IL-1β released from the cells were measured by ELISA method in the same manner as in item (i) above.

[4] = system: IL-1β production in human synovial cells; assay: Inhibition of IL-1β production in human synovial cells; format: cell-based; conditions: 33 μM; TPA and A 23187 stimulation, 40 hours
Experimental: (§1) Human synovial membrane obtained at an operation was treated with collagenase to obtain synovial cells, which were subcultured several times and inoculated on a 12-well culture dish. On reaching to confluence, the cells were provided to the test described below. The synovial cells produce IL-1 but release only a little amount and accordingly are appropriate cells to study an inhibition or an acceleration of IL-1 intracellular production.
(§2) Each DMSO (dimethylsulfoxide) solution containing one of ACP, PAL and PAC separately in a concentration of 400 times that of the final test and DMSO solution not containing any of the compound as a control, were diluted to 40 times in its volume with a medium containing fetal bovine serum (hereinafter referred to as "FBS") [Ham Medium]. 100 μl of the diluted solution was added to each well and further, 800 μl of the medium [Ham] was added to each well. […] The concentration of TPA and the ionophore in the medium were adjusted so that their final concentration in the well became 0.1 μg/ml and 0.2 μg/ml, respectively and a production of IL-1 was stimulated. Final volume of the liquid (medium) per well was 1 ml/well. After 40 hours of culture, liquid portion was removed from each well and 1 ml of a Ham medium was added to the remaining cells in each well. Freeze-thawing was repeated on the medium containing the cells several times to destroy all the cells in the medium and supernatants containing intracellular substances were obtained by centrifugation. IL-1α and IL-1β in the supernatant were determined by ELISA method using a prescribed enzyme-antibody-complex (manufactured by OHTSUKA SEIYAKU, Co., Ltd.) as intracellular IL-1s. [Refer to ENSHO, vol.

[5] = system: IL-1 release from cultured cartilage cells; assay: Inhibition of IL-1 release from cultured cartilage cells; format: cell-based, rabbit; conditions: 3.3 μM; TPA and A 23187 stimulation, 24 hours
Experimental: Cartilages were aseptically taken out from knee and shoulder joints of young rabbit, treated with a Ham medium containing 0.2% collagenase and separated each other into single cells. After washed two times with a Ham medium containing 10% FBS, the cells were dispersed into the Ham medium containing 10% FBS at a concentration of 10^5 cells/ml. […] After 24 hours of cultivation, IL-1 released into each of the supernatants was measured by a bioassay applying an incorporated amount of ^3 H-thymidine (^3 H-TdR) as an index. […] In the Figure, "Intact" means a case TPA and the ionophore were not added and accordingly no stimulation of IL-1 release was given.

[6] = system: proteoglycan (PG) in cultured cartilage cells; assay: Synthesis, release and remaining amount of proteoglycan (PG) in cultured cartilage cells; format: cell-based, rat
Experimental: Costal cartilage was aseptically taken out from male SD rats of 4 weeks age, enzymatically treated to separate it into single cells, then inoculated into a 12-well culture dish and cultured under an atmosphere containing 5% CO2 at 37° C. After the chondrocytes had been grown to confluence, 1 to 10 μM of PAL or 10 to 100 μM of PAC was added and three hours later, 2 μCi of Na2^35 SO4 was further added to each well. Twenty four hours later, the synthesis amount in, release amount from and remaining amount of PG in the matrix were determined using amount of ^35 S as an index. […] In the Figures, the PG release in the control was defined as 100%. […] In FIGS. 4(a), 4(b) and 4(c), the released amount of PG means the amount representing the PG degraded in and released from cartilage matrixes, which was calculated on a basis of ^35 S in the culture medium. The remaining amount of PG means the PG not degraded in the matrixes and was also calculated in the same way as above. Sum of the released and the remaining amounts of PG is thought to be a synthesized PG.

[7] = Acute toxicity (LD50) of PAC in male mice; format: in vivo; conditions: intraperitoneal
[8] = system: IL-1α production in human synovial cells; assay: Inhibition of IL-1α production in human synovial cells; format: cell-based; conditions: 33 μM; TPA and A 23187 stimulation, 40 hours
Experimental: as §1, §2

| SMILES | acute toxicities (LD50), compared with ACP [1] | inhibiting activity on PG release (further compounds) [2] | also measured |
| --- | --- | --- | --- |
| CCCCCCCCCCCCCCCCCC(=O)OC(OC(=O)CCCCCCCCCCCCCCCCC)c1ccc(OC(C)=O)c(OC(C)=O)c1 [3,4-diacetoxybenzylidene di-n-octadecanoate] | approximately same values | same effects |  |
| CC(=O)Oc1ccc(C=O)cc1OC(C)=O [3,4-diacetoxybenzaldehyde] | approximately same values | same effects |  |
| CCC(=O)Oc1ccc(C(OC(=O)CC)OC(=O)CC)cc1OC(=O)CC [3,4-di-n-propionyloxybenzylidene di-n-propionate] | approximately same values |  | inhibition of IL-1 release [3]: significantly inhibit; inhibition of PG release under IL-1α [2]: inhibited the release amount of PG |
| CCCCCCCCCCCCCCCCCC(=O)Oc1ccc(C(OC(=O)CCCCCCCCCCCCCCCCC)OC(=O)CCCCCCCCCCCCCCCCC)cc1OC(=O)CCCCCCCCCCCCCCCCC [3,4-di-n-octadecanoyloxybenzylidene di-n-octadecanoate] | approximately same values |  | inhibition of IL-1 release [3]: significantly inhibit; inhibition of PG release under IL-1α [2]: inhibited the release amount of PG |
| O=C(Oc1ccc(C(OC(=O)c2ccccc2)OC(=O)c2ccccc2)cc1OC(=O)c1ccccc1)c1ccccc1 [3,4-dibenzoyloxybenzylidene dibenzoate] | approximately same values |  | inhibition of IL-1 release [3]: significantly inhibit; inhibition of PG release under IL-1α [2]: inhibited the release amount of PG |
| CCCCCCCCCCCCCCCCCC(=O)Oc1ccc(C=O)cc1OC(=O)CCCCCCCCCCCCCCCCC [3,4-di-n-octadecanoyloxybenzaldehyde] | approximately same values | same effects |  |
| O=Cc1ccc(OC(=O)c2ccccc2)c(OC(=O)c2ccccc2)c1 [3,4-dibenzoyloxybenzaldehyde] | approximately same values | same effects |  |
| O=C(O)c1ccc(O)c(O)c1 [PAC, 3,4-dihydroxybenzoic acid] |  | same effects | inhibiting activity of IL-1β production [4]: inhibiting activity of IL-1α only; inhibition of IL-1 release from cartilage cells [5]: inhibit the release of IL-1; effect on PG synthesis ([6]; PAL 1 to 10 μM, PAC 10 to 100 μM, 24 hours): no effect; inhibition of PG release ([6]; PAL 1 to 10 μM, PAC 10 to 100 μM, control release 100%): exhibited inhibiting activities on the PG release; remaining amount of PG in the matrix ([6]; PAL between 1 and 3.3 μM, PAC between 10 and 100 μM): increased in proportion to the adding amount; LD50 at 192 h ([7]; mouse, in vivo, ip, observed 8 days): ≥ 400 mg/kg; inhibiting activity of IL-1α production [8]: inhibiting activity of IL-1α only |
| CCCCCCCCCCCCCCCCCC(=O)Oc1ccc(C(OC(C)=O)OC(C)=O)cc1OC(=O)CCCCCCCCCCCCCCCCC [3,4-di-n-octadecanoyloxybenzylidene diacetate] | approximately same values | same effects |  |
| CCCC(=O)Oc1ccc(C(OC(=O)CCC)OC(=O)CCC)cc1OC(=O)CCC [3,4-di-n-butyryloxybenzylidene di-n-butyrate] | approximately same values | same effects |  |
| CC(=O)Oc1ccc(C(=O)O)cc1OC(C)=O [3,4-diacetoxybenzoic acid] | approximately same values | same effects |  |
| CC(=O)Oc1ccc(C(=O)[O-])cc1OC(C)=O.[Na+] [3,4-diacetoxybenzoic acid sodium salt] | approximately same values | same effects |  |
| CCCCCCCCCCCCCC(=O)Oc1ccc(C(OC(=O)CCCCCCCCCCCCC)OC(=O)CCCCCCCCCCCCC)cc1OC(=O)CCCCCCCCCCCCC [3,4-di-n-tetradecanoyloxybenzylidene di-n-tetradecanoate] | approximately same values | same effects |  |
| CCCCCCCCCCCC(=O)Oc1ccc(C(OC(=O)CCCCCCCCCCC)OC(=O)CCCCCCCCCCC)cc1OC(=O)CCCCCCCCCCC [3,4-di-n-dodecanoyloxybenzylidene di-n-dodecanoate] | approximately same values |  | inhibition of IL-1 release [3]: significantly inhibit; inhibition of PG release under IL-1α [2]: inhibited the release amount of PG |
| CCCCCCCCCCCCCCCC(=O)Oc1ccc(C(OC(=O)CCCCCCCCCCCCCCC)OC(=O)CCCCCCCCCCCCCCC)cc1OC(=O)CCCCCCCCCCCCCCC [3,4-di-n-hexadecanoyloxybenzylidene di-n-hexadecanoate] | approximately same values | same effects |  |
| O=C(O)c1ccc(O)c(O)c1 [sodium salt of PAC] |  |  | LD50 value, compared with PAC ([7]; level relative to PAC (not less than 400 mg/kg)): same level of LD50 value |
